Data on four compounds can be found in patent US10065990B2, “Cyclic peptide compound, and preparation method, pharmaceutical composition and use thereof” (HANGZHOU GUANYU BIO-MEDICAL CO., LTD, priority 2013, dated 2018).

Like-named read-outs stand apart in the source and are kept apart here.

Assay [1] concerns the target T1, HDAC7 (Homo sapiens, UniProt Q8WUI4).
T1 sequence (Q8WUI4 1-952): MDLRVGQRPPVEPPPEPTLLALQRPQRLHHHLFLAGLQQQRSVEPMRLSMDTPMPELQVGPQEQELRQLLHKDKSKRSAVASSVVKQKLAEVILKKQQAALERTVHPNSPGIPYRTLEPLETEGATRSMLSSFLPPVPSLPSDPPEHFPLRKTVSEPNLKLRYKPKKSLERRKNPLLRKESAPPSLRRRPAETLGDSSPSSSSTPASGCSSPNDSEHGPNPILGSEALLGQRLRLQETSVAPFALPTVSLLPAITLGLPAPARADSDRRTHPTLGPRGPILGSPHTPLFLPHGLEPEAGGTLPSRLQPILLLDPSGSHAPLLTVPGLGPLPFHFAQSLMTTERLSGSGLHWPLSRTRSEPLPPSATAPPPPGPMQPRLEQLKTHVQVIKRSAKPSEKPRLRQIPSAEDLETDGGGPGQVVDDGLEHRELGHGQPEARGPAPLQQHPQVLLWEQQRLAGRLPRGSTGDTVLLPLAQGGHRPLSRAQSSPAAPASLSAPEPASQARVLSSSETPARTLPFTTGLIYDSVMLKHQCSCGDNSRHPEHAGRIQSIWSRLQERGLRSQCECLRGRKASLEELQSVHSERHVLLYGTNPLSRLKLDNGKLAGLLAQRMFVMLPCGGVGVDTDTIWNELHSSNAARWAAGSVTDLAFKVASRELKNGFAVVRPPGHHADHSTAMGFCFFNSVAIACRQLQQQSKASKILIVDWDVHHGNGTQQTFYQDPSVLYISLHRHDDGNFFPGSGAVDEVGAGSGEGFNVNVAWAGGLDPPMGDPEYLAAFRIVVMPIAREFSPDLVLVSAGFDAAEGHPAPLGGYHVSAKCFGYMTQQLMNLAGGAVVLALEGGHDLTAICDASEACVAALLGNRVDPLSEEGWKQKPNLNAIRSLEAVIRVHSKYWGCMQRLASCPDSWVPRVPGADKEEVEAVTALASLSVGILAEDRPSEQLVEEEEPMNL
The experiment in a line: HDAC biochemical activity measurement (fluorescent substrate deacetylation).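 Also: fluorogenic deacetylation assay using acetyl-lysine substrate at 20 µM, enzyme and compound incubated 30 min at 37 °C, then developer added, fluorescence read at 360/460 nm.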 The note with it: HDAC7; 37° C. 30 minutes.

Assay [2] relates to SGC-7901 (human gastric cancer cells). The experiment in a line: MTT cancer cell growth inhibition. The note with it: Homo sapiens, SGC-7901, 72 h, MTT, 72 hours incubation, SGC-7901 cells; read-out: GI50 SGC-7901. The assay is classed as cell-based. The method in brief:
(§1)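 Using a 72 h MTT format, triplicate wells of 1500 cells received compound concentrations from 10^−5 to 10^−10 M. Formazan was read at 570 nm after DMSO dissolution, and GI50 was derived from viability.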

Assay [3] deals with N-87 (human gastric cancer cells). Put plainly: MTT cancer cell growth inhibition. The assay is classed as cell-based. The following applies: Homo sapiens, 72 h, MTT, 72 hours incubation, N-87 cells; read-out: GI50 N-87. In outline: as §1
Assay [4] concerns Bel-7402 (human hepatoma cells). The experiment in a line: MTT cancer cell growth inhibition. The note with it: Homo sapiens, Bel-7402, 72 h, MTT, 72 hours incubation, Bel-7402 cells; read-out: GI50 Bel-7402. Format: cell-based. The method in brief: as §1
Assay [5] has as its system K562 (human leukemia cells). Put plainly: MTT cancer cell growth inhibition. The assay is classed as cell-based. The following applies: Homo sapiens, K562, 72 h, MTT, 72 hours incubation, K562 cells; read-out: GI50 K562. In outline:
as §1

The test system of assay [6] is HT1080 (human fibrosarcoma cells). Put plainly: MTT cancer cell growth inhibition. The note with it: Homo sapiens, HT-1080, 72 h, MTT, 72 hours incubation, read-out: GI50 HT1. The assay is classed as cell-based. In outline:
as §1

Assay [7] concerns U937 (human leukemia cells). The experiment in a line: MTT cancer cell growth inhibition. The assay is classed as cell-based. The following applies: Homo sapiens, U-937, 72 h, MTT, 72 hours incubation, read-out: GI50 U93. In outline:
as §1

In assay [8] the test system is Hela (human cervical cancer cells). Put plainly: MTT cancer cell growth inhibition. Format: cell-based. The following applies: Homo sapiens, HeLa, 72 h, MTT, 72 hours incubation, read-out: GI50 Hela. In outline: as §1
For assay [9], the system named is MOLT-4 (human acute lymphoblastic leukemia cells). The experiment in a line: MTT cancer cell growth inhibition. The assay is classed as cell-based. The note with it: Homo sapiens, MOLT-4, 72 h, MTT, 72 hours incubation, read-out: GI50 Mol. In outline:
as §1

The test system of assay [10] is MDA-MB-231 (breast cancer cells). Put plainly: MTT cancer cell growth inhibition. The assay is classed as cell-based. The following applies: Homo sapiens, MDA-MB-231, 72 h, read-out: GI50 MDA-MB-231, MTT, 72 hours incubation, MDA-MB-231 cells. The method in brief:
as §1

For assay [11], the system named is KBM5-T315I (human chronic myelogenous leukemia). Put plainly: MTT cancer cell growth inhibition. The following applies: Homo sapiens, 72 h, MTT, 72 hours incubation, KBM5-T315I cells; read-out: GI50 KBM5-T315I. Format: cell-based. The method in brief: as §1
Assay [12] has as its system Huh-7 (human hepatoma cells). The experiment in a line: MTT cancer cell growth inhibition. The following applies: Homo sapiens, Huh-7, 72 h, MTT, 72 hours incubation, Huh-7 cells; read-out: GI50 Huh-7. Format: cell-based. The method in brief: as §1
Assay [13] has as its system H1975 (non-small cell lung adenocarcinoma). The experiment in a line: MTT cancer cell growth inhibition. Format: cell-based. The following applies: Homo sapiens, NCI-H1975, 72 h, MTT, 72 hours incubation, H1975 cells; read-out: GI50 H1975. The method in brief:
as §1

The test system of assay [14] is DU145 (human prostate cancer cells). Put plainly: MTT cancer cell growth inhibition. The following applies: Homo sapiens, DU-145, 72 h, MTT, 72 hours incubation, read-out: GI50 Du1. Format: cell-based. In outline: as §1
The test system of assay [15] is A549 (human lung cancer cells). The experiment in a line: MTT cancer cell growth inhibition. The following applies: Homo sapiens, A549, 72 h, MTT, 72 hours incubation, read-out: GI50 A54. Format: cell-based. The method in brief:
as §1

In assay [16] the test system is BGC-823 (human gastric cancer cells). Put plainly: MTT cancer cell growth inhibition. Format: cell-based. The following applies: Homo sapiens, BGC-823, 72 h, MTT, 72 hours incubation, read-out: GI50 BG. In outline: as §1
Assay [17] has as its system MCF-7 (human breast cancer cells). Put plainly: MTT cancer cell growth inhibition. Format: cell-based. The note with it: Homo sapiens, MCF7, 72 h, 72 hours incubation, read-out: GI50 MCF. In outline:
as §1

Assay [18] deals with KBM-5 (human chronic myelogenous leukemia). Put plainly: MTT cancer cell growth inhibition. The assay is classed as cell-based. The following applies: Homo sapiens, KBM5, 72 h, MTT, 72 hours incubation, KBM-5 cells; read-out: GI50 KBM-5. In outline:
as §1

Assay [19] concerns PANC-1 (Pac-1, human pancreatic cancer cells). Put plainly: MTT cancer cell growth inhibition. Format: cell-based. The note with it: Homo sapiens, PANC-1, 72 h, MTT, 72 hours incubation, read-out: GI50 PAN. The method in brief: as §1
Assay [20] relates to HCC827 (human non-small cell lung cancer cells). The experiment in a line: MTT cancer cell growth inhibition. Format: cell-based. The following applies: Homo sapiens, HCC827, 72 h, MTT, 72 hours incubation, HCC827 cells; read-out: GI50 HCC827. In outline: as §1
Assay [21] relates to lncap (prostate cancer cells). The experiment in a line: MTT cancer cell growth inhibition. The assay is classed as cell-based. The following applies: Homo sapiens, LNCaP, 72 h, MTT, 72 hours incubation, read-out: GI50 lnca. The method in brief:
as §1

One may read the GI50 as the concentration at which growth is held to half of that of the control. Turning to `C/C=C1\NC(=O)c2ccc(SC)c(n2)CNC(=O)C[C@@H](/C=C/CCSC=O)OC(=O)[C@H](C(C)C)NC1=O` [Compound 170], the “IC50 HDAC7” value in assay [1] is “no activity”. The GI50 was 0.037 µM in [2]; 0.062 µM in assay [3]; 0.043 µM in assay [4]; 0.037 µM in assay [5]; 0.05 µM in assay [6] (HT1080 cells); 0.09 µM in assay [7] (U937 cells). The concentration for 50% growth inhibition (GI50) in assay [8] (Hela cells) was determined as 0.03 µM; in [9] (MOLT-4 cells), 0.03 µM; in assay [10] it was 0.038 µM; in [11], 0.057 µM; in [12], 0.088 µM; in assay [13], 0.026 µM. Besides, the GI50 in assay [14] (DU145 cells) was determined as 0.02 µM; in [15] (A549 cells), 0.06 µM; in [16] (BGC-823 cells), 0.02 µM; in assay [17] (MCF-7 cells), 0.06 µM; in assay [18] it was 0.049 µM; in [19] (PANC-1 cells), 0.05 µM. The GI50 in assay [20] stood at 0.096 µM; in [21] (lncap cells), 0.07 µM.
As to `C/C=C1\NC(=O)c2ncc(F)c(n2)CNC(=O)C[C@@H](/C=C/CCSC(C)=O)OC(=O)[C@H](C(C)C)NC1=O` [Compound 97], the “IC50 HDAC7” value in [1] is “no activity”. The GI50 in [2] came out at 0.024 µM; in [3], 0.031 µM; in [4], 0.059 µM; in assay [5], 0.029 µM; in assay [6], 0.07 µM; in assay [7] it was 0.03 µM. For the same compound, the GI50 in assay [8] stood at 0.09 µM; in [9] it was 0.02 µM; in assay [10], 0.031 µM; in [11] it was 0.026 µM; in assay [12] it was 0.013 µM; in assay [13] it was 0.042 µM. For the same compound, the GI50 was 0.01 µM in [14]; 0.05 µM in [15]; 0.03 µM in assay [16]; 0.03 µM in assay [17]; 0.093 µM in [18]; 0.07 µM in [19]. Also, the GI50 in assay [20] is 0.039 µM; in assay [21], 0.02 µM.
On to `C/C=C1\NC(=O)c2nc(ccc2SC)CNC(=O)C[C@@H](/C=C/CCS)OC(=O)[C@H](C(C)C)NC1=O` [Compound 226], for which the “IC50 HDAC7” value in assay [1] is listed as “no activity”. The GI50 came to 0.023 µM in [2]; 0.035 µM in [3]; 0.031 µM in assay [4]; 0.061 µM in assay [5]; 0.02 µM in [6] (HT1080 cells); 0.04 µM in [7] (U937 cells). Besides, the concentration for 50% growth inhibition (GI50) in assay [8] (Hela cells) was determined as 0.09 µM; in assay [9] (MOLT-4 cells) it was 0.03 µM; in [10], 0.034 µM; in assay [11] it was 0.065 µM; in [12], 0.068 µM; in [13], 0.037 µM. Moreover, the GI50 is 0.03 µM in assay [14] (DU145 cells); 0.06 µM in [15] (A549 cells); 0.05 µM in [16] (BGC-823 cells); 0.02 µM in [17] (MCF-7 cells); 0.075 µM in [18]; 0.02 µM in assay [19] (PANC-1 cells). The GI50 in [20] worked out at 0.033 µM; in assay [21] (lncap cells) it was 0.03 µM.
For `C=C1NC(=O)c2ccc(F)c(n2)CNC(=O)C[C@@H](/C=C/CCS)OC(=O)[C@H](C(C)C)NC1=O` [Compound 134], the “IC50 HDAC7” value in [1] is “no activity”. Besides, the GI50 is 0.027 µM in assay [2]; 0.041 µM in assay [3]; 0.029 µM in [4]; 0.038 µM in [5]; 0.07 µM in [6]; 0.05 µM in assay [7]. The GI50 in assay [8] is 0.04 µM; in [9] it was 0.05 µM; in assay [10], 0.063 µM; in assay [11], 0.061 µM; in assay [12] it was 0.092 µM; in [13], 0.054 µM. For the same compound, the GI50 in assay [14] turned out to be 0.05 µM; in assay [15], 0.03 µM; in [16], 0.17 µM; in assay [17], 0.08 µM; in assay [18] it was 0.031 µM; in [19], 0.13 µM. For the same compound, the GI50 came to 0.035 µM in assay [20] and 0.1 µM in assay [21].
